From patent US20040110681A1, “Method to identify targeting molecules” (priority 2002, published 2004)
Positions of bridges follow the written chain, without caps; N, C: chain ends. Non-standard residues stand in square brackets, D forms with d. Residues, ends and D or L forms follow the SMILES beside them. hArg = N=C(N)NCCCC[C@H](N)C(=O)O; Mpa = O=C(O)CCS

Key:
[1] = system: platelets adhering to the pial vasculature; assay: Intravital microscopy of platelet adhesion to pial vessels, LPS-induced model of sepsis
Description: The effect of the A3 mimetic of blood cell adhesion to brain vasculature was assessed by intravital microscopy. Platelets or leukocytes were fluorescently labeled and then the interaction of the labeled cells with the vascular endothelium imaged and analyzed pre and post the addition of various compounds. Platelets were isolated from blood of source animals by differential centrifugation at 200 g for 10 minutes, to pellet erythrocytes and leukocytes. The supernatant, designated platelet-rich plasma contained less than 0.5% leukocytes as determined by the number of DAPI-positive nucleated cells. The platelets were pelleted by spinning at 500 g, resuspended in Tyrode's buffer and incubated for 20 min with 5-,-6-carboxyfluorescein diacetate, succinimidyl ester (CFDA, or CFSE). 1×10^8 platelets in 0.1 ml were injected slowly over 5 minutes via a carotid catheter into anesthetized mice. […] Platelet rolling and adhesion was recorded for off-line analysis onto videotape or onto hard-drive of the computer via an intensified camera (Cascade, Roper Scientific) on a Leica DM-FSA upright microscope. […] Leukocytes are fluorescence-labeled in vivo by injecting Rhodamine 6G via a carotid catheter and analyzing the movement of the labeled cells on brain endothelium.
For the platelet studies a known antagonist of platelet-platelet interactions, Integrilin™ (Cor Therapeutics) was also evaluated. […]

[2] = Pharmacokinetic analysis, plasma half-life of fusion protein and free peptide; type: in vivo; details: read-out: plasma t½
[3] = system: brain tissue; assay: Individual peptide variants of A3 on phage, brain selectivity index vs T7-lacZ; type: in vivo, FVB or BALB/c mice; details: 2 hours circulation; for Brain Targeting Activity: 0.5-1×10^10 pfu co-injected with T7-lacZ; for Selectivity index (FVB female) / Selectivity index (BALB/C mice): brain tissue; for Selectivity index (FVB female): FVB female mice
Description: In this example, various individual peptide variants of A3 were tested in vivo for their ability to target brain or other tissues. […] The phage contents of each organ were determined by plaque assay in the presence of X-gal (500 μg/mL) in top agar.
Thus, selectively indices of less than 10 are considered low, those between 10 and […] are considered moderate and those over 100 are considered high.

[4] = system: brain; assay: Head to head comparison of CAGAXCY variants (L5, N5, M5) vs control lacZ phage; type: in vivo; details: 6 hours after administration vs 2 hours
[5] = system: brain; assay: kSAR: co-injection of all 20 CAGAXCY (position 5) phage variants, sequence frequency in brain; type: in vivo, BALB/c mice
Description: To determine the optimum amino acid for position 5, all 20 variants at this position were injected. For co-injection of all 20 variants of CAGAXCY phage, individual phage were grown up and titered. Equivalent amounts of each phage type were added to PBS and 200 μL dose of the mixture was injected into 3 BALB/c mice per group (two time points of 30 minutes and 4 hours were studied, total of 6 mice). At 30 min and 4 hrs post injection, the mice were anesthetized, perfused and blood and brain were harvested. Aliquots of both the initial phage pool used for dosing as well as brain tissue samples were plated out, and approximately 100 individual plaques from each set were amplified by PCR using the T7 Super up primer method and sequenced using a CEQ 2000XL sequencer (Beckman Coulter, Calif.).
A total of 107 individual phage from the initial mixture used for dosing were sequenced to verify the relative abundance of the individual phage within the administered dose and these were compared with the relative frequency of the different phage recovered from brain after 30 minutes or 4 hours of circulation. There was a marked and rapid shift in frequency even by 30 minutes, where there was a marked enrichment of phage expressing N at the X5 position, (from 7% in the initial pool to 49%), M (from 5% to 24%) or L (2.8% to 12%) at 30 minutes.

[6] = system: brain; assay: CX4CY phage library, one round of in vivo panning to brain; set-up: species or system BALB/c mice; details: 4 hrs post phage injection
Description: A CX4CY library was prepared and tested. 1×10^10 pfu of the library phage were injected into 6 BALB/c mice (3 mice/time point). At 30 min and 4 hr post-injection, brain was harvested and processed as described above. Similar numbers of plaques were picked individually, and the insert sequence amplified by PCR and sequenced. Alignment analysis of the sequence data was performed with a version of Clustral/W.

[7] = 30 minutes after injection of 20-variant mixture
[8] = 4 hours after injection of 20-variant mixture

Compound	Brain Targeting Activity [3]	Selectivity index (FVB female) [3]	other results
N=C(N)NCCCC[C@@H]1NC(=O)CCSSC[C@@H](C(N)=O)NC(=O)[C@@H]2CCCN2C(=O)[C@H](Cc2c[nH]c3ccccc23)NC(=O)[C@H](CC(=O)O)NC(=O)CNC1=O [Integrilin] ([Mpa][hArg]GDWPC-NH2; disulfide 1-7)	–	–	platelet adhesion to pial vessels ([1]; 4 hours after i.p. 10 μg LPS, Integrilin at 40 mg/kg): slight antagonistic effect; DIC and adhesion of microaggregates to the brain vasculature ([1]; higher doses than 40 mg/kg): exacerbated DIC and adhesion of microaggregates to the brain vasculature
CC(C)C[C@@H]1NC(=O)[C@H](C)NC(=O)CNC(=O)[C@H](C)NC(=O)[C@@H](N)CSSC[C@@H](C(=O)N[C@@H](Cc2ccc(O)cc2)C(=O)O)NC1=O [free synthetic peptide, CAGALCY] (H-CAGALCY-OH; disulfide 1-6)	–	–	half-life [2]: 1 to 2 min
CAGAGCY	No	1.1	Brain Targeting Activity ([3]; listed as L5G): loss of brain targeting activity
CAGALC	No	1.5	–
CAGALCAY	brain targeting activity is lost and No	1.4	–
CAGALCF	Yes	>200	Selectivity index (BALB/C mice) [3]: 800
CAGALCS	loss of brain targeting activity and No	3.0	–
CAGALSY	brain targeting capacity is lost and No	1.9	–
CAGAMCY	–	–	change of brain SI values [4]: increase further; frequency of phage variant recovered from brain [5, 7]: 24%; frequency of phage variant recovered from brain [5, 8]: 37%; enrichment among 83 sequences sampled from the brain [6]: no enriched phage
CAGANCY	–	–	change of brain SI values [4]: slight decrease; frequency of phage variant recovered from brain [5, 7]: 49%; frequency of phage variant recovered from brain [5, 8]: 55%; enrichment among 83 sequences sampled from the brain [6]: no enriched phage
CAGAPCY	brain targeting capacity is lost and No	7.6	–
CAGDSMCY [reference compound]	negative and No	–	Selectivity index (BALB/C mice) [3]: 0.9
CAGGLCY	No	0.9	Brain Targeting Activity ([3]; listed as A4G): loss of brain targeting activity
CALCY	No	0.8	–
CDITEYC [reference compound]	No	0.4	Selectivity index (BALB/C mice) [3]: 1
CGADALCY	No	–	Selectivity index (BALB/C mice) [3]: 1
CGALCY	No	0.8	–
CGFDMPC [reference compound]	No	0.5	–
CGGALCY	No	0.7	Brain Targeting Activity ([3]; listed as A2G): loss of brain targeting activity
CLCY	No	3.5	–
CPADCY [reference compound]	No	0.3	–
CRDVNECD [reference compound]	No	0.3	Selectivity index (BALB/C mice) [3]: 1
CYGDPC [reference compound]	No	0.8	–
YCDAPC [reference compound]	No	0.7	–
